The target of test [1] is BTK in mouse bone marrow (Mus musculus (Mouse), UniProt P35991). As to the kind of experiment: Mouse Bone Marrow Assay (MSD ELISA of BTK degradation in bone marrow). The format is in vivo. Conditions: female C57BL/6J mice, single dose of Dose A, bone marrow collected after 24 hours. On the procedure:
Female C57BL/6J mice (Jackson Laboratories) were used for this study. Compounds or vehicle/control were prepped with EtOH; PEG-400; Phosal 53 MCT (10:30:60, v/v). Four mice were tested per compound or vehicle/control. On Day 1, mice were administered a single dose of Dose A. On Day 2 (after 24 hours), tissue (bone marrow) was collected from one hind leg per mouse.
An MSD (Meso Scale Discovery) ELISA (enzyme-linked immunosorbent assay) based assay was used to determine BTK degradation in mouse bone marrow. The following materials and equipment were used: 10% NP40 solution (nonionic polyoxyethylene surfactant, ThermoFisher, cat no. 28324); protease inhibitor mini tablet (Roche, cat no. 05 892 970 001); PhosphoSTOP™ tablet (Roche, cat no. 04 906 837 001); Pierce™ BCA Protein Assay Kit (Thermofisher, Cat No. 23225); Precellys® 2 mL lysing tube with 2.8 mm beads (VWR, cat no. 10032-756); Bertin Precellys® 24/Cryolys® cooling system; 96-well MSD streptavidin pre-coated plates (MSD, cat no. L15SA-1); MSD Blocker A (MSD, cat no. R93BA-4); capture antibody, biotinylated BTK mAb (BD Biosciences, cat no. 624008; custom order); primary detection antibody, BTK RpAb (rabbit polyclonal antibody, CST, cat no. 8547S, D3H5 clone); secondary detection antibody, anti-Rabbit-Sulfo-Tag (MSD, cat no. R32AB-1); read Buffer, 4× (MSD, cat no. R92TC-1); recombinant BTK protein (Thermofisher, cat no. PR5442A); MSD Tris Wash Buffer (10×) (MSD, cat no. R61TX-1); PBS (phosphate-buffered saline); deionized water (diH2O); Lysis Buffer [0.2% NP40 in PBS+Protease Inhibitor tablet (1 tablet/10 mL)+PhosphoSTOP tablet (1 tablet/10 mL)]; 3% MSD Blocker A [MSD Blocker A+450 mL diH2O+50 mL]; and 10×MSD Tris Wash Buffer.
Lysis buffer [(PBS+0.2% NP40+PI (protease inhibitor)+PhosphoSTOP)] was prepared and put on ice until it was fully cold. Ice cold lysis buffer […] was added to each Precellys® tube containing beads and bone marrow sample. Sample tubes were transferred into Precellys® machine and homogenized using 5000 rpm—2×20 seconds. The sample lysates were centrifuged at 14,000 rpm for 20 minutes at 4° C. after homogenizing.
The protein concentration was determined using Pierce™ BCA Protein Assay Kit following manufacturer's recommended protocol. The protein normalized working solution was prepared, using 30 μg protein per sample lysate for assay.
A 300 ng/ml working stock solution of recombinant BTK protein in lysis buffer was prepared, and the sample was serially diluted at 3-fold dilution (10-point assay, highest concentration was 300 ng/mL and lowest concentration was 0.015 ng/mL)
MSD plate coating: Coating antibody (biotinylated-BTK mAb) stock solution was prepared at 1 μg/mL in PBS buffer. 50 μL/well capture antibody (Biotinylated BTK mAb) solution was added, and the plates were shaken gently at ambient temperature for two hours. The plates were washed 3 times with 1×MSD Tris Wash Buffer in a plate washer (300 μL/well), and the plates were blocked with 3% MSD Blocker A (150 μL/well). The plates were incubated for an additional 1-2 hours at ambient temperature with gentle shaking. The plates were washed 3 times with 1×MSD wash buffer using plate washer. Bone marrow lysates (30 μg) at a final volume of 50 μL/well were added into the plates. The serially diluted standard samples were added to the same plates at a final volume of 50 μL/well. The plates were incubated overnight at 4° C. with gentle shaking.
The plates were washed three times with 1×MSD wash buffer (prepared from 10× concentration buffer) using plate washer. Primary detection antibody at 50 μL/well was added (BTK RpAb; 1:1000 dilution in 1% MSD Blocker A). The plates were incubated for two hours at ambient temperature with gentle shaking. The plates were washed three times with 1×MSD wash buffer using plate washer. Anti-Rabbit-SULFO-TAG secondary antibodies (50 μl/well) were added, 1:500 diluted in 1% MSD Blocker A, and the plates were incubated for one to two hours at ambient temperature. […]
In general terms: ELISA stands for enzyme-linked immunosorbent assay.

The test system of test [2] is TCL1-driven CLL bearing BTK^C481S mutation. As to the kind of experiment: TCL1-driven CLL bearing BTK C481S mutation in C57BL/6 mice, circulating leukemia burden. In kind it is in vivo, mouse. An excerpt:
EIA-TCL1 CLL transgenic mice (Crogen Pharmaceuticals LLC) were crossed with BTK^C481S knock-in mice (AbbVie) to generate Eμ-TCL1 transgenic mice carrying the BTK^C481S mutation. The leukemic splenocytes from these BTK^C481S Eμ-TCL1 transgenic mice (Passage 1) were transplanted intravenously into C57BL/6 mice, leading to CLL development in the peripheral blood and spleen. When circulating CLL burden (CD5+CD19+ cells as described below) in the recipient mice reached over 90%, their splenocytes (Passage 2) containing high CLL burden were cryopreserved and used for CLL efficacy studies. […]
To determine the absolute/total leukocyte numbers, complete blood counts were determined for each mouse using the Genesis™ veterinary hematology analyzer (Oxford Science Inc.).
Cells isolated from murine peripheral blood mononuclear cells (PMBCs) were collected to determine antigen expression. […] Cells were gated on CD45+, and thereafter the percentage of cells that were CD5+CD19+ from that subset was calculated. […]
Whole blood was collected weekly post tumor implantation via submandibular cheek bleeding. Circulating leukemic burden was calculated by multiplying absolute/total leukocyte count with the percentage of the leukocytes have the immunophenotype CD19^+CD5^+. […]

Chain of BTK in mouse bone marrow (P35991 whole entry): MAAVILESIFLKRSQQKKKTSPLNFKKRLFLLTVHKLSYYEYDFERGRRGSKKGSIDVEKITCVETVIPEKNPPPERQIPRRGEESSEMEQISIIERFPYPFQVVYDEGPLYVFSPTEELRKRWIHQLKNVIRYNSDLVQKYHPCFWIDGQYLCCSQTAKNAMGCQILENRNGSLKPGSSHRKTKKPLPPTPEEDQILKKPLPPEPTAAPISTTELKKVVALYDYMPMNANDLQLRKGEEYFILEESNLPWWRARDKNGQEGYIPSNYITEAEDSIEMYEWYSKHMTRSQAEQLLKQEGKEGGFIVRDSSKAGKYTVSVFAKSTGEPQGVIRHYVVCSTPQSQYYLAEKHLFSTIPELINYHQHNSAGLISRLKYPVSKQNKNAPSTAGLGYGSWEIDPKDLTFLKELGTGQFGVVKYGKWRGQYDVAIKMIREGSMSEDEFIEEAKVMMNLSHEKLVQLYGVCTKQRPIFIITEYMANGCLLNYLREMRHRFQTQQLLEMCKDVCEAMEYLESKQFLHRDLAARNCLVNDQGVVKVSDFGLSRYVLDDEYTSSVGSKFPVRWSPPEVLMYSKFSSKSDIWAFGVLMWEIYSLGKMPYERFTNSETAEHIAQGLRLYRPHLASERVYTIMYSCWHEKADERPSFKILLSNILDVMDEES

Regarding `Cc1cc(-c2cc(Nc3ccc(N4CCN(CCc5ccc(N6CCC(=O)NC6=O)cc5)C[C@@H]4C)cn3)ncn2)ccc1[C@@H](C)NC(=O)c1nc(C(C)(C)C)no1` [Example 1, 3-tert-butyl-N-[(1R)-1-{4-[6-({5-[(2S)-4-{2-[4-(2,4-dioxo-1,3-diazinan-1-yl)phenyl]ethyl}-2-methylpiperazin-1-yl]pyridin-2-yl}amino)pyrimidin-4-yl]-2-methylphenyl}ethyl]-1,2,4-oxadiazole-5-carboxamide], the “Mouse Bone Marrow (%) (% remaining BTK, vehicle versus treated)” value in test [1] came to 11%. In addition, the “CLL burden control (no increase from the initial tumor burden)” value in test [2] (QD for 19 days, at Dosage 3 and Dosage 4) was “Complete CLL burden control”. Also, the “circulating leukemia burden (CD19+CD5+ CLL cells per μL)” value in test [2] (once daily (QD) for 19 days, Dosage 1-4, FIG. 1) was “controlled circulating leukemia burden of the TCL1-driven CLL bearing BTK^C481S mutation in C57BL/6 mice in a dose-dependent manner”.

The record behind these values is patent US12172992B2, “Pyrimidines for degrading Bruton's tyrosine kinase” (AbbVie Inc., priority 2022, dated 2024).
